In test [1] the test system is IDO1. Conditions: reported value; cited from earlier work.
Test [2] concerns NCI-H460 human lung cancer cell line. Nature of the test: Cell viability MTT assay, 72 h. In kind it is cell-based. Conditions: for inhibition at 50 µM: shown when calculated IC50 >50 μM, read-out: H460 inhibition rate (%) at 50 μM. The method, then: (§1) B16-F10 mouse melanoma cells, NCI-H460 human lung cancer cell line and MCF7 were obtained from American Type Culture Collection (ATCC). All the cell lines were cultured with Dulbecco’ modified Eagle’s medium (DMEM) (Invitrogen Corporation, Waltham, MA, USA) supplemented with 10% fetal bovine serum (FBS) (Hyclone, Waltham, MA, USA) and 1% penicillin streptomycin (Invitrogen) at 37 °C in 5% CO2.
(§2) The in vitro inhibitory effects of the compounds were measured by MTT assay. Briefly, different kinds of cells were plated in 96-well plates at a density of 2000/well. After attachment for overnight at 37 °C, the cells were treated with the compounds at various concentrations. After 72 h culture, the MTT reagent was added to each well, and plates were incubated for another 4 h at 37 °C. Then, the blue-purple crystal formamidine was dissolved in DMSO after discarding the supernatant. Samples were measured using microplate reader at a wavelength of 570 nm (Biotek Instruments, Inc., Winooski, VT, USA). IC50 values were calculated with GraphPad Prism 8.0 software.

The test system of test [3] is MCF7. Nature of the test: Cell viability MTT assay, 72 h. The format is cell-based. Conditions: Homo sapiens; for inhibition at 50 µM: shown when calculated IC50 >50 μM, read-out: MCF7 inhibition rate (%) at 50 μM. The method, then:
as §1, §2

The target of test [4] is rhIDO1 (Homo sapiens, UniProt P14902). The test can be described thus: Enzyme-based IDO1 activity assay (kynurenine absorbance at 492 nm). Conditions: for inhibition at 50 µM: shown when calculated IC50 >50 μM, read-out: IDO inhibition rate (%) at 50 μM; for IC50: rhIDO1 0.05 μM, 37 °C, 45 min, read-out: IDO IC50. In kind it is biochemical. The method, then:
(§3) The compounds on IDO1 or TDO activity were determined as follows: A standard reaction mixture (100 μL) containing 100 mM potassium phosphate buffer (pH 6.5), 40 mM ascorbic acid (neutralized with NaOH), 200 μg/mL catalase, 20 μM methylene blue and 0.05 μM rhIDO1 or rhTDO was added to the solution containing the substrate L-tryptophan and the test sample at a determined concentration. […] The yellow pigment derived from kynurenine was measured at 492 nm using a SYNERGY-H1 microplate reader (Biotek Instruments, Inc., Winooski, VT, USA). IC50 was analyzed using the GraphPad Prism 8.0 software (GraphPad Software, San Diego, CA, USA).

Test [5] addresses rhTDO (Homo sapiens, UniProt P48775). Nature of the test: Enzyme-based TDO activity assay (kynurenine absorbance at 492 nm). The format is biochemical. Conditions: for inhibition at 50 µM: shown when calculated IC50 >50 μM, read-out: TDO inhibition rate (%) at 50 μM. The method, then:
as §3

Like-named read-outs stand apart in the source and are kept apart here.

Chain of rhTDO (P48775 whole entry): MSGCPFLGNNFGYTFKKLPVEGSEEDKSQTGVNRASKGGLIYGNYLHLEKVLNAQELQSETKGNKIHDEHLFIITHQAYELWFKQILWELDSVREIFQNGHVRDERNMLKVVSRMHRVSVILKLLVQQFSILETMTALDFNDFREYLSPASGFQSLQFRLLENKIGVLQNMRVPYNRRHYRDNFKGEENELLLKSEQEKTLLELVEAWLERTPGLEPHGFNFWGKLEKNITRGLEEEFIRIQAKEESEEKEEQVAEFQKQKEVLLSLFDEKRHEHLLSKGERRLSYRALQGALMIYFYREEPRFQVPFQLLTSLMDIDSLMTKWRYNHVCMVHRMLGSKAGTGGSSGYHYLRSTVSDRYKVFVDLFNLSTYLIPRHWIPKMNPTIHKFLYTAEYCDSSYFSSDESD
Chain of rhIDO1 (P14902 whole entry): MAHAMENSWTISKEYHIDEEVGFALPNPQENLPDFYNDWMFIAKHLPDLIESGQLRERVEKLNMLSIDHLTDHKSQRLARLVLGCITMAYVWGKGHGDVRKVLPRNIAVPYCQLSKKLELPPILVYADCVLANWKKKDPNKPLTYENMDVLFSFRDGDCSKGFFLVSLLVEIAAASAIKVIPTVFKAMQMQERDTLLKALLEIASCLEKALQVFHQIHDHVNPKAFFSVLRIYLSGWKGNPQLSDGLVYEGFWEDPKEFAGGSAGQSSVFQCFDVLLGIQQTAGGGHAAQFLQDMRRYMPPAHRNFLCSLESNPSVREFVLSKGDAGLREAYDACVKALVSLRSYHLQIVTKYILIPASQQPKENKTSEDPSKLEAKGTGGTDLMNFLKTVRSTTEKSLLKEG

Usually IC50 stands for the concentration that inhibits the measured activity by half. As for `Cc1ccc(-c2csc3ncc(C(=O)NCCc4cccc(Cl)c4)n23)cc1` [AMCL-17g], the concentration for half-maximal inhibition (IC50) in test [1] is 0.077 µM.

The inhibition is the percentage by which the read-out fell short of the control. As for `ONCc1ccccc1-c1c[nH]cn1` [DX-03-03, N-(2-(1H-imidazol-4-yl)benzyl)hydroxylamine], the inhibition at 50 µM was 5% in test [2], 22.2% in test [3], 19.4% in test [4] and 11.1% in test [5].

Regarding `O/N=C/c1ccccc1-c1nn[nH]n1` [DX-03-04, (E) 2-(2H-tetrazol-5-yl)benzaldehyde Oxime], the inhibition at 50 µM in test [2] was 12.7%; in test [3], 34.7%; in test [4] it was 11.9%; in test [5] it was 20.3%.

Take `O/N=C/c1ccc(-c2ccccc2)cc1-c1c[nH]cn1` [DX-03-09, (E) 3-(1H-imidazol-4-yl)-[1,1′-biphenyl]-4-carbaldehyde Oxime]: the inhibition at 50 µM in test [2] is 40.5%; in test [3], 37.7%; in test [4], 5.3%; in test [5] it was 6.4%.

In the case of `FC(F)(F)c1ccc(COc2ccccc2-c2csnn2)cc1` [DX-03-10, 4-(2-((4-(trifluoromethyl)benzyl)oxy)phenyl)-1,2,3-thiadiazole], the inhibition at 50 µM was 7.6% in test [2], 24.7% in test [3], 13.2% in test [4] and 21.5% in test [5].

On to `O=C(NCCCOc1ccccc1-c1cnc[nH]1)Nc1ccc(C(F)(F)F)cc1` [DX-03-13, 1-(3-(2-(1H-imidazol-5-yl)phenoxy)propyl)-3-(4-(trifluoromethyl)phenyl)urea], for which the half-inhibitory concentration (IC50) stood at 13.8 µM in test [2] (unit inferred, read-out: H460 IC50 or %); 21.4 µM in test [3] (unit inferred, read-out: MCF7 IC50 or %); 0.5 µM in test [4]. Moreover, the “TDO inhibition, in words” value in test [5] was “marginal”. Also, in test [5], the inhibition at 50 µM was 38.9%.

Regarding `COc1ccc(Cl)cc1-c1cn(Cc2ccc(C(F)(F)F)cc2)cn1` [DX-04-01, 4-(5-chloro-2-methoxyphenyl)-1-(4-(trifluoromethyl)benzyl)-1H-imidazole], the IC50 in test [2] (read-out: H460 IC50) is 12 µM; in test [3] (read-out: MCF7 IC50) it was 8.53 µM. In addition, the inhibition at 50 µM in test [4] was 46.2%; in test [5], 26.5%.

As to `Oc1ccc(Cl)cc1-c1cn(Cc2ccc(C(F)(F)F)cc2)cn1` [DX-04-02, 4-chloro-2-(1-(4-(trifluoromethyl)benzyl)-1H-imidazol-4-yl)phenol], the IC50 worked out at 7.69 µM in test [2] (read-out: H460 IC50) and 35.7 µM in test [3] (read-out: MCF7 IC50). Further, the inhibition at 50 µM in test [4] was 9.7%; in test [5], 18%.

As for `Oc1ccc(Cl)cc1-c1cn(Cc2ccc(C(F)(F)F)cc2)nn1` [DX-04-05, 4-chloro-2-(1-(4-(trifluoromethyl)benzyl)-1H-1,2,3-triazol-4-yl)phenol], the IC50 in test [2] (read-out: H460 IC50) was determined as 22.9 µM; in test [3] (read-out: MCF7 IC50) it was 42.6 µM; in test [4], 23 µM. Further, the “IDO1 inhibition, in words” value in test [4] is given as “moderate”. In addition, the inhibition at 50 µM in test [5] is 22.4%.

In the case of `COc1ccc(Cl)cc1-c1cn(Cc2ccc(C(F)(F)F)cc2)nn1` [DX-04-06, 4-(5-chloro-2-methoxyphenyl)-1-(4-(trifluoromethyl)benzyl)-1H-1,2,3-triazole], the values for the IC50 in test [2] (read-out: H460 IC50) and in test [3] (read-out: MCF7 IC50) were 48.4 µM and 49.3 µM, respectively. The inhibition at 50 µM is 13.5% in test [4] and 23.6% in test [5].

In the case of `Oc1ccc(Cl)cc1-c1nn[nH]c1-c1ccc(C(F)(F)F)cc1` [DX-04-07, 4-chloro-2-(5-(4-(trifluoromethyl)phenyl)-1H-1,2,3-triazol-4-yl)phenol], the IC50 in test [2] (read-out: H460 IC50) is 27.4 µM; in test [3] (read-out: MCF7 IC50), 12.3 µM. In addition, the inhibition at 50 µM in test [4] is 38.2%; in test [5], 21.4%.

Regarding `COc1ccc(Cl)cc1-c1nn[nH]c1-c1ccc(C(F)(F)F)cc1` [DX-04-08, 4-(5-chloro-2-methoxyphenyl)-5-(4-(trifluoromethyl)phenyl)-1H-1,2,3-triazole], the inhibition at 50 µM was 7.5% in test [2], 24.9% in test [3], 21.2% in test [4] and 11.2% in test [5].

Values taken from PMC6600671, “Design and Synthesis of Indoleamine 2,3-Dioxygenase 1 Inhibitors and Evaluation of Their Use as Anti-Tumor Agents” (Molecules, 2019).
